The text below walks through data of patent US9388153B2, “Secondary amines as therapeutic agents” (Allergan, Inc., priority 2013, dated 2016).

Each structure is given as a SMILES string.

The target in assay [1] is T1, EP2 (Homo sapiens, UniProt P43116). Description: EP2 cAMP functional assay. In kind it is cell-based. Conditions: NA = Not Active. The text has this:
(§1) U.S. patent application publication No. 20070129552, published on Jun. 7, 2007, incorporated by reference herein, describes the methods used to obtain the in vitro data in Table 1 below.

Assay [2] deals with T1, EP2. Description: EP2 binding (Ki). The conditions noted are these: NA = Not Active; read-out: EP2 Data (EC50 in nM) Ki.
From the text: as §1

The target in another assay is EP4 (Homo sapiens, UniProt P35408). Description: EP4 binding (KI). The conditions noted are these: NA = Not Active; read-out: EP4 data (EC50 in nM) KI.
Chain of EP4 (P35408 whole entry): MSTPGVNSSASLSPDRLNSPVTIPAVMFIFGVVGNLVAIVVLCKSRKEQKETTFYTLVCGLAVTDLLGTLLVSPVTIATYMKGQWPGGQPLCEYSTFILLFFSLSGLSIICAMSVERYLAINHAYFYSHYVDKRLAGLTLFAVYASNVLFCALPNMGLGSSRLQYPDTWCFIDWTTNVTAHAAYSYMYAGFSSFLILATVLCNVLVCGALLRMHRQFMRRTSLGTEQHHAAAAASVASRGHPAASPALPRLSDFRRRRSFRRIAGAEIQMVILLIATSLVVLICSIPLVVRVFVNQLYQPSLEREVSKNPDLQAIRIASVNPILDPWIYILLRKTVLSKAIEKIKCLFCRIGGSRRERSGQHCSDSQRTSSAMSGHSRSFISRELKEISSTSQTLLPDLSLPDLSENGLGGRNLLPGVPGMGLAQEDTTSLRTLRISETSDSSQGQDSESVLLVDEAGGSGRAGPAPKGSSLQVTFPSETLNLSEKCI
From the text: as §1

T1 sequence (P43116 whole entry): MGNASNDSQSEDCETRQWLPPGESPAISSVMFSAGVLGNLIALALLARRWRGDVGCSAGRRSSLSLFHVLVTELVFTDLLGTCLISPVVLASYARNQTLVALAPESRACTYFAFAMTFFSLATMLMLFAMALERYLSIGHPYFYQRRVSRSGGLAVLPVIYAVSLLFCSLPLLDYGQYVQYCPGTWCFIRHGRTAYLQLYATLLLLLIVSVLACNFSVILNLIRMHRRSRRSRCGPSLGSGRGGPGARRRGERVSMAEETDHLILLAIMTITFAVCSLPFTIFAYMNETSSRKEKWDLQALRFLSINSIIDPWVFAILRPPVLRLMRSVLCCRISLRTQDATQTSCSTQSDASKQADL

For the compound `O=C(O)COc1cccc(NC2COc3ccc(-c4cccc(F)c4)cc32)c1` (stereo not drawn) [Example 8, 2-(3-((5-(3-Fluorophenyl)-2,3-dihydrobenzofuran-3-yl)amino)phenoxy)acetic acid], the EC50 on EP2 [1] was 0.6 nM. Further, the figures for the Ki at EP2 [2] and at EP4 were 13 nM and 7990 nM, respectively.
As for `O=C(O)COc1cccc(OC2CCc3ccc(-c4cccc(F)c4)cc32)c1` (stereo not drawn) [Example 5, 2-(3-((6-(3-Fluorophenyl)-2,3-dihydro-1H-inden-1-yl)oxy)phenoxy)acetic acid], the EC50 on EP2 [1] came to 747 nM. Besides, on EP2 [2], the Ki was found to be 144 nM.
Take `OCCOc1cccc(NC2CCCc3ccc(-c4cccc(F)c4)cc32)c1` (stereo not drawn) [Example 7, 2-(3-((7-(3-Fluorophenyl)-1,2,3,4-tetrahydronaphthalen-1-yl)amino)phenoxy)ethanol]: the Ki at EP4 worked out at 6280 nM.
At EP2 [1], `CN(c1cccc(OCC(=O)O)c1)C1CCc2ccc(-c3cccc(F)c3)cc21` (stereo not drawn) [Example 3, 2-(3-((6-(3-Fluorophenyl)-2,3-dihydro-1H-inden-1-yl)(methyl)amino)phenoxy)acetic acid] returned a concentration for a half-maximal effect (EC50) of 697 nM. Also, the Ki on EP2 [2] came out at 1810 nM; on EP4, 7320 nM.
On EP2 [1], `O=C(O)COc1cccc(NC2CCc3ccc(-c4cccc(F)c4)cc32)c1` (stereo not drawn) [Example 1, 2-(3-((6-(3-Fluorophenyl)-2,3-dihydro-1H-inden-1-yl)amino)phenoxy)acetic acid] displayed an EC50 of 11 nM. Besides, the Ki stood at 80 nM on EP2 [2] and 3050 nM at EP4.
Taken in the same sequence, the figures for `O=C(O)COc1cccc(NC2CCCc3ccc(-c4cccc(F)c4)cc32)c1` (stereo not drawn) [Example 6, 2-(3-((7-(3-Fluorophenyl)-1,2,3,4-tetrahydronaphthalen-1-yl)amino)phenoxy)acetic acid] were 438 nM, 104 nM and 3630 nM.
Regarding `CCN(c1cccc(OCC(=O)O)c1)C1CCc2ccc(-c3cccc(F)c3)cc21` (stereo not drawn) [Example 4, 2-(3-(Ethyl(6-(3-fluorophenyl)-2,3-dihydro-1H-inden-1-yl)amino)phenoxy)acetic acid], a half-maximal response at EP2 [1] (EC50) required 8300 nM. In addition, the results for the Ki on EP2 [2] and on EP4 were 3940 nM and 6640 nM, respectively.

As a reminder, the EC50 is the concentration at which the effect is half-maximal. High values mean a less potent agent, low ones a more potent agent. One may read the Ki as the equilibrium dissociation constant of an inhibitor or competing ligand from its target.
